# Data reported in ChEMBL document CHEMBL3885861, “Open TG-GATES”.
# Species on record: Rattus norvegicus
# Test: Open TG-GATES - Regimen: Single
# Format: toxicity, organism-based, Sprague-Dawley
# Design: regimen Single, gender Male, age 6 weeks
# Conditions: in vivo, po, 1 mg/kg, route gavage, dose level Low; for APTT / Bas / Eos / Fbg / Hb / Ht / Lym / MCH / MCHC / MCV / Mono / Neu / PT / Plat / RBC / Ret / WBC: tissue Blood; for KIDNEY_L / KIDNEY_R / KIDNEY_TOTAL: tissue Kidney; for LIVER: tissue Liver; for A/G / ALP / ALT / AST / BUN / CRE / Ca / Cl / DBIL / GLC / IP / K / LDH / Na / PL / RALB / TBIL / TC / TG / TP / gamma-GTP: tissue Plasma
compound,measurement,setting,value
O=NN(CCCl)C(=O)NC1CCCCC1 [LOMUSTINE],TERMINAL_BW,3 h,204.1 g
same,APTT,3 h,16.5 s
same,Bas,3 h,0%
same,Eos,3 h,0.2%
same,Fbg,3 h,224.2 mg/dL
same,Hb,3 h,13.4 g/dL
same,Ht,3 h,40.4%
same,Lym,3 h,78.8%
same,MCH,3 h,21.6 pg
same,MCHC,3 h,33.2%
same,MCV,3 h,65.2 fL
same,Mono,3 h,8.4%
same,Neu,3 h,12.2%
same,PT,3 h,11.3 s
same,Plat,3 h,105.5 x10_4/uL
same,RBC,3 h,619 x10_4/ul
same,Ret,3 h,8.6%
same,WBC,3 h,119.1 x10_2/uL
same,KIDNEY_L,3 h,0.9 g
same,KIDNEY_R,3 h,0.9 g
same,KIDNEY_TOTAL,3 h,1.9 g
same,LIVER,3 h,9.6 g
same,A/G,3 h,2
same,ALP,3 h,970.8 IU/L
same,ALT,3 h,33.4 IU/L
same,AST,3 h,60 IU/L
same,BUN,3 h,11 mg/dL
same,CRE,3 h,0.5 mg/dL
same,Ca,3 h,11.4 mg/dL
same,Cl,3 h,105.8 meq/L
same,DBIL,3 h,0.028 mg/dL
same,GLC,3 h,184.2 mg/dL
same,IP,3 h,10 mg/dL
same,K,3 h,4.8 meq/L
same,LDH,3 h,82.2 IU/L
same,Na,3 h,139.8 meq/L
same,PL,3 h,135.8 mg/dL
same,RALB,3 h,3.7 g/dL
same,TBIL,3 h,0.3 mg/dL
same,TC,3 h,79 mg/dL
same,TG,3 h,52.4 mg/dL
same,TP,3 h,5.6 g/dL
same,gamma-GTP,3 h,1.4 IU/L
same,TERMINAL_BW,6 h,203.2 g
same,APTT,6 h,16.9 s
same,Bas,6 h,0%
same,Eos,6 h,0.4%
same,Fbg,6 h,227.8 mg/dL
same,Hb,6 h,13.4 g/dL
same,Ht,6 h,40.2%
same,Lym,6 h,82%
same,MCH,6 h,21.8 pg
same,MCHC,6 h,33.3%
same,MCV,6 h,65.6 fL
same,Mono,6 h,5.8%
same,Neu,6 h,11.8%
same,PT,6 h,12.2 s
same,Plat,6 h,96.8 x10_4/uL
same,RBC,6 h,613.2 x10_4/ul
same,Ret,6 h,9%
same,WBC,6 h,116.2 x10_2/uL
same,KIDNEY_L,6 h,0.9 g
same,KIDNEY_R,6 h,0.9 g
same,KIDNEY_TOTAL,6 h,1.9 g
same,LIVER,6 h,9 g
same,A/G,6 h,2
same,ALP,6 h,759.8 IU/L
same,ALT,6 h,33.2 IU/L
same,AST,6 h,66.6 IU/L
same,BUN,6 h,11.2 mg/dL
same,CRE,6 h,0.5 mg/dL
same,Ca,6 h,10.9 mg/dL
same,Cl,6 h,104.6 meq/L
same,DBIL,6 h,0.008 mg/dL
same,GLC,6 h,188.6 mg/dL
same,IP,6 h,10.5 mg/dL
same,K,6 h,5.1 meq/L
same,LDH,6 h,90.2 IU/L
same,Na,6 h,140.8 meq/L
same,PL,6 h,142.8 mg/dL
same,RALB,6 h,3.7 g/dL
same,TBIL,6 h,0.2 mg/dL
same,TC,6 h,84 mg/dL
same,TG,6 h,41.2 mg/dL
same,TP,6 h,5.5 g/dL
same,gamma-GTP,6 h,1.4 IU/L
same,TERMINAL_BW,9 h,200.6 g
same,APTT,9 h,16.5 s
same,Bas,9 h,0%
same,Eos,9 h,0.6%
same,Fbg,9 h,220.2 mg/dL
same,Hb,9 h,13.3 g/dL
same,Ht,9 h,40.4%
same,Lym,9 h,78.6%
same,MCH,9 h,21.9 pg
same,MCHC,9 h,32.9%
same,MCV,9 h,66.4 fL
same,Mono,9 h,6.6%
same,Neu,9 h,14.2%
same,PT,9 h,12.4 s
same,Plat,9 h,99.4 x10_4/uL
same,RBC,9 h,608 x10_4/ul
same,Ret,9 h,9%
same,WBC,9 h,86.7 x10_2/uL
same,KIDNEY_L,9 h,0.9 g
same,KIDNEY_R,9 h,0.9 g
same,KIDNEY_TOTAL,9 h,1.8 g
same,LIVER,9 h,8.6 g
same,A/G,9 h,2.5
same,ALP,9 h,787 IU/L
same,ALT,9 h,32 IU/L
same,AST,9 h,62.6 IU/L
same,BUN,9 h,8.8 mg/dL
same,CRE,9 h,0.5 mg/dL
same,Ca,9 h,10.6 mg/dL
same,Cl,9 h,105.8 meq/L
same,DBIL,9 h,0.036 mg/dL
same,GLC,9 h,184.6 mg/dL
same,IP,9 h,10.2 mg/dL
same,K,9 h,4.6 meq/L
same,LDH,9 h,76.6 IU/L
same,Na,9 h,138.4 meq/L
same,PL,9 h,127.4 mg/dL
same,RALB,9 h,3.9 g/dL
same,TBIL,9 h,0.4 mg/dL
same,TC,9 h,72.4 mg/dL
same,TG,9 h,39 mg/dL
same,TP,9 h,5.5 g/dL
same,gamma-GTP,9 h,4.2 IU/L
same,TERMINAL_BW,24 h,218.5 g
same,APTT,24 h,18.1 s
same,Bas,24 h,0%
same,Eos,24 h,1%
same,Fbg,24 h,201 mg/dL
same,Hb,24 h,12.6 g/dL
same,Ht,24 h,37.9%
same,Lym,24 h,80.8%
same,MCH,24 h,21.8 pg
same,MCHC,24 h,33.4%
same,MCV,24 h,65.3 fL
same,Mono,24 h,5.8%
same,Neu,24 h,12.6%
same,PT,24 h,12.2 s
same,Plat,24 h,94.4 x10_4/uL
same,RBC,24 h,580.2 x10_4/ul
same,Ret,24 h,9%
same,WBC,24 h,138.2 x10_2/uL
same,KIDNEY_L,24 h,1 g
same,KIDNEY_R,24 h,1 g
same,KIDNEY_TOTAL,24 h,2 g
same,LIVER,24 h,10.7 g
same,A/G,24 h,2.2
same,ALP,24 h,961 IU/L
same,ALT,24 h,37.6 IU/L
same,AST,24 h,68.4 IU/L
same,BUN,24 h,15.8 mg/dL
same,CRE,24 h,0.5 mg/dL
same,Ca,24 h,11.1 mg/dL
same,Cl,24 h,104.6 meq/L
same,DBIL,24 h,0.018 mg/dL
same,GLC,24 h,185.4 mg/dL
same,IP,24 h,7.6 mg/dL
same,K,24 h,4.8 meq/L
same,LDH,24 h,100.6 IU/L
same,Na,24 h,138 meq/L
same,PL,24 h,144.6 mg/dL
same,RALB,24 h,3.9 g/dL
same,TBIL,24 h,0.3 mg/dL
same,TC,24 h,76 mg/dL
same,TG,24 h,98 mg/dL
same,TP,24 h,5.7 g/dL
same,gamma-GTP,24 h,1.8 IU/L
